Results taken from patent publication US8926603B2, “System and method for denaturing and fixing collagenous tissue” (Hansen Medical, Inc., priority 2004, dated 2015).

Assay: denaturation accompanied by genepin treatment, study at the University of Pennsylvania (FIG. 6)
Settings: versus denatured collagenous tissue without genepin treatment
Text: Referring to FIGS. 5A-C, a denatured collagenous tissue mass exposed to genepin (371) is depicted. […] The result is a partial recovery or recreation of the mechanical properties of collagenous tissue to the state that they were prior to denaturation. […] Referring to FIG. 6, this has been experimentally confirmed in a study at the University of Pennsylvania, as directed by the inventors of the subject invention.

## COC(=O)C1=CO[C@@H](O)[C@@H]2C(CO)=CC[C@H]12 [genepin]
  susceptibility to creep deformation of denatured collagenous tissue: less susceptible to creep deformation
